According to patent US20220396580A1, “TRICYCLIC DILACTONE COMPOUND, AND PRODUCTION METHOD AND USE THEREOF” (SEOUL NATIONAL UNIVERSITY R&DB FOUNDATION, priority 2020, published 2022):

What was measured:
[1] = tested on: HT-22 mouse hippocampal neuronal cells and BV2 microglial cells; test: Immunoblotting of cleaved caspase-3 and Bcl-2 in cells treated with amyloid-beta aggregates; assay type: cell-based; conditions: amyloid-beta aggregates and 20 μM rhizolutin together, 24 hours
Excerpt: To verify the inhibitory activity of rhizolutin on the neurotoxicity of the amyloid-beta aggregates, changes in apoptosis-related biomarkers after exposing neurons to the neurotoxicity of the amyloid-beta aggregates were observed. Here, cleaved caspase-3, which is an apoptosis-inducing factor, and B-cell lymphoma 2 (Bcl-2), which inhibits apoptosis, were used as the biomarkers.
HT-22 mouse hippocampal neuronal cells and BV2 microglial cells were inoculated into a plate in a predetermined number. To each of the HT-22 cell line and the BV2 cell line, an amyloid-beta solution prepared in the same manner as in Example 2-2 was added at a concentration of […], followed by incubation at 37° C. for 24 hours. Afterwards, 20 μM of rhizolutin was added to each microtube, followed by incubation with amyloid-beta in a final concentration of 20 μM at 37° C. for 24 hours. As a negative control group, a group without rhizolutin and the amyloid-beta protein was used.
Cleaved caspase-3 and Bcl-2, which are apoptosis-related biomarkers, were identified by immunoblotting, and images thereof are shown in FIG. 5A.

Tau protein [2] = test: Inhibition of formation of tau aggregates (thioflavin T fluorescence); assay type: biochemical; conditions: 1 mM rhizolutin vs 20 mM EPPS
Method: Tau protein was prepared at a concentration of 1 mg/mL, and as described in Example 2-3, the prepared tau protein was added to a 1.5 mL microtube at a concentration of 0.5 mg/mL, and 1 mM of rhizolutin and 20 mM of EPPS were added thereto, followed by incubation at 37° C. for 120 hours.
(§1) Thioflavin T was added to the reaction, and the fluorescence intensity was measured at an excitation wavelength of 450 nm and an emission wavelength of 485 nm. As a negative control group, a vehicle without the tau protein and rhizolutin was used.
(§2) Based on the fluorescence intensity of the group in which only the tau protein was treated (positive control group), the fluorescence intensity (%) of each group was calculated, and results are shown in FIGS. 6A and 6B (mean±SEM, *: p<0.01, ***: p<0.001).

human A131-42 monomer [3] = target: T1, human A131-42 monomer (Homo sapiens, UniProt P05067); test: Disaggregation of amyloid-beta aggregates (thioflavine-T fluorescence); assay type: biochemical
T1 construct: UniProt KB-P05067, a.a; 672 to 713
T1 sequence (P05067 672-713): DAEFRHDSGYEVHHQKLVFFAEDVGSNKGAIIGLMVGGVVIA
Method: An amyloid-beta solution was prepared by dissolving human A131-42 monomer (UniProt KB-P05067, a.a. 672 to 713) in DMSO to have a concentration of 10 mM. Then, the amyloid-beta solution was diluted with distilled water to prepare a solution having a concentration of 100 μM. Meanwhile, thioflavine-T (Sigma-Aldrich) was dissolved in 50 mM glycin buffer (pH 8.5) to have a concentration of 5 mM. Then, the resulting solution was diluted with 50 mM glycin buffer (pH 8.5) to have a concentration of 5 μM, and stored light-blocked in a dark room. In addition, to verify the activity of rhizolutin on disaggregation of the amyloid-beta aggregation, the amyloid-beta solution was added to a 1.5 mL microtube to a concentration of 25 μM and incubated at 37° C. for 72 hours. Then, 1 mM of rhizolutin was added to each microtube, followed by incubation at 37° C. for 72 hours. […] Then, fluorescence intensity was measured at an excitation wavelength of 450 nm and an emission wavelength of 485 nm by using a multi-mode microplate reader. Based on the fluorescence intensity of the group (control group) in which only amyloid-beta was treated and aggregated for 72 hours, the fluorescence intensity (%) of each group was calculated, and results are shown in FIG. 3B (mean±SEM, *: p<0.05, ***: p<0.001).

Tau protein [4] = test: Disaggregation of tau aggregates (thioflavin T fluorescence); assay type: biochemical; conditions: 1 mM rhizolutin vs 20 mM EPPS
Method: Meanwhile, the tau protein was added to a 1.5 mL microtube at a concentration of 0.5 mg/mL, and incubated at 37° C. for 48 hours. Then, rhizolutin was added at a concentration of 1 mM, and incubated at 37° C. for 72 hours. To compare the efficacy, EPPS was added at a concentration of 20 mM, and incubated under the same conditions.
as §1, §2

APP/PS1 transgenic mice = test: Amyloid-beta aggregates in brain tissue of APP/PS1 transgenic mice (thioflavine S / GFAP staining); assay type: in vivo, mouse; conditions: 8 mg/kg/day intraperitoneal for 3 weeks
Method: First, APP/PS1 transgenic mice (7.5-month-old, male, Jackson Laboratory, 9 to 10 mice/group) to which the genes of AD patients were injected were prepared. In the APP/PS1 transgenic mice, human amyloid-beta is expressed at a high level, and Alzheimer-like plaques are formed in the brain.
The prepared mice were intraperitoneally administered daily with rhizolutin at a dose of 8 mg/body weight (kg)/day for 3 weeks. As a negative control group, the prepared mice were intraperitoneally administered with a vehicle only.
Afterwards, the mouse brain was removed, and changes in amyloid-beta aggregates (in the form of oligomer or fibril) as AD biomarkers in the brain tissue were measured.

human A131-42 monomer [5] = target: T1, human A131-42 monomer; test: Inhibition of amyloid-beta aggregation (thioflavine-T fluorescence); assay type: biochemical; conditions: 25 μM amyloid-beta, 1 mM rhizolutin, 37° C., 120 hours
Method: An amyloid-beta solution was prepared by dissolving human A131-42 monomer (UniProt KB-P05067, a.a. 672 to 713) in DMSO to have a concentration of 10 mM. Then, the amyloid-beta solution was diluted with distilled water to prepare a solution having a concentration of 100 μM. Meanwhile, thioflavine-T (Sigma-Aldrich) was dissolved in 50 mM glycin buffer (pH 8.5) to have a concentration of 5 mM. Then, the resulting solution was diluted with 50 mM glycin buffer (pH 8.5) to have a concentration of 5 μM, and stored light-blocked in a dark room. To verify the inhibitory activity of rhizolutin on the amyloid-beta aggregation, the amyloid-beta solution was added to 1.5 mL microtubes to a concentration of 25 μM, and rhizolutin was added thereto at a concentration of 1 mM, followed by incubation at 37° C. for 120 hours. […] After a reaction was allowed for 5 minutes at room temperature in the darkroom, fluorescence was measured at an excitation wavelength of 450 nm and an emission wavelength of 485 nm by using a multi-mode microplate reader. Based on the fluorescence intensity of the group (control group) in which only amyloid-beta was treated and aggregated for 120 hours, the fluorescence intensity (%) of each group was calculated, and results are shown in FIG. 3A (one-way ANOVA test followed by Bonferroni's post-hoc comparison test, mean±SEM, ***: p<0.001).

## CC[C@H]1C[C@@H]2/C(C)=C/[C@@H]3OC(=O)C[C@@H](O)C[C@H]3/C=C/C(C)=C\[C@H]2C(=O)O1 [rhizolutin]
[1]
  expression of Bcl-2: the expression of Bcl-2 increased
  expression of cleaved caspase-3: the expression of cleaved caspase-3 decreased
Tau protein [2]
  inhibiting formation of tau aggregates compared with EPPS: better effects
Human A131-42 monomer [3]; 25 μM amyloid-beta pre-aggregated 72 hours, then 1 mM rhizolutin 72 hours, 37° C.
  disaggregation of amyloid-beta aggregates (oligomer or fibril): disaggregated the amyloid-beta aggregates
Human A131-42 monomer [3]; 1 mM rhizolutin vs 20 mM EPPS, same conditions
  amyloid-beta disaggregation activity compared with EPPS: better than that of EPPS
Tau protein [4]
  disaggregating tau aggregates compared with EPPS: better effects
APP/PS1 transgenic mice; brain tissue
  GFAP, biomarker of neuroinflammation (astrocytosis around the plaques): also decreased
APP/PS1 transgenic mice; thioflavine S, vs negative control group
  number of amyloid-beta plaques in the hippocampus of the brain: decrease in the number of amyloid-beta plaques
Human A131-42 monomer [5]
  formation of amyloid-beta aggregates (oligomer or fibril): significantly inhibited
